Measured values taken from the NIST ThermoML archive (doi:10.1021/acs.jced.5b00838).

Assays:
[1] = 101.33 kPa, Liquid, Vibrating tube method
[2] = excess molar enthalpy (molar enthalpy of mixing); xn = mol fraction of the nth substance listed; details: 298.15 K, 100 kPa, Liquid, isothermal titration calorimetry

CCCCCCCOC [1-methoxyheptane]
[1]
Details	mass density [kg/m3]
288.15 K	783.89
293.15 K	779.71
298.15 K	775.52
303.15 K	771.31
308.15 K	767.09
313.15 K	762.85
318.15 K	758.57
323.15 K	754.3

CCCCOCC(C)C [butyl isobutyl ether]
[1]
Details	mass density [kg/m3]
288.15 K	764.07
293.15 K	759.72
298.15 K	755.31
303.15 K	750.87
308.15 K	746.45
313.15 K	741.98
318.15 K	737.58
323.15 K	732.99

CCCCOCC(C)C [butyl isobutyl ether] + CC#N
[2]
Details	excess molar enthalpy [kcal/mol]
x2 = 0.0314	0.0454
x2 = 0.061	0.0839
x2 = 0.0887	0.116
x2 = 0.1149	0.143
x2 = 0.1396	0.167
x2 = 0.1851	0.204
x2 = 0.2261	0.233
x2 = 0.2631	0.255
x2 = 0.2967	0.273
x2 = 0.3275	0.286
x2 = 0.3815	0.302
x2 = 0.4274	0.31
x2 = 0.4671	0.315
x2 = 0.5097	0.317
x2 = 0.5459	0.316
x2 = 0.5772	0.311
x2 = 0.6045	0.308
x2 = 0.6329	0.301
x2 = 0.6575	0.295
x2 = 0.6789	0.289
x2 = 0.7009	0.282
x2 = 0.7183	0.275
x2 = 0.72	0.275
x2 = 0.7368	0.268
x2 = 0.7392	0.267
x2 = 0.7517	0.261
x2 = 0.7613	0.256
x2 = 0.765	0.254
x2 = 0.7847	0.242
x2 = 0.8097	0.226
x2 = 0.8362	0.207
x2 = 0.853	0.193
x2 = 0.8705	0.177
x2 = 0.8887	0.158
x2 = 0.9077	0.137
x2 = 0.9275	0.112
x2 = 0.9411	0.0935
x2 = 0.9552	0.073
x2 = 0.9697	0.0503
x2 = 0.9846	0.0253

CCCCCCOCC [1-ethoxyhexane]
[1]
Details	mass density [kg/m3]
288.15 K	775.8
293.15 K	771.47
298.15 K	767.15
303.15 K	762.8
308.15 K	758.45
313.15 K	754.06
318.15 K	749.66
323.15 K	745.27

CCCOCCC(C)C [3-methyl-1-propoxybutane]
[1]
Details	mass density [kg/m3]
288.15 K	768.79
293.15 K	764.43
298.15 K	760.04
303.15 K	755.62
308.15 K	751.22
313.15 K	746.78
318.15 K	742.31
323.15 K	737.84
